From patent publication US20240343704A1, “HALO-SUBSTITUTED AMINO PYRIDINE COMPOUNDS AS INHIBITORS OF THE HAEMATOPOIETIC PROGENITOR KINASE 1 (HPK1)” (priority 2021, published 2024)

Legend:
Lck (h) = Lck (h) (Homo sapiens, UniProt P06239); assay: Lck Human  Kinase Enzymatic Radiometric Assay; type: biochemical; conditions: read-out: Lck IC50 nM Range*
In short: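 Substrate 33P-incorporation measured by scintillation counting after spotting on P30 filtermat and phosphoric acid washes. Human Lck reacted 40 min at RT in 50 mM Tris pH 7.5 with 10 mM MgAcetate, [gamma-33P]-ATP, 250 uM Cdc2 peptide, 0.1 mM EGTA and 0.1 mM Na3VO4.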

[1] = target: T1, Recombinant (1-346) HPK1 (h) (Homo sapiens, UniProt Q92918); assay: HPK1 Human STE Kinase Enzymatic Radiometric Assay; type: biochemical; conditions: read-out: HPK1 IC50 nM Range*
T1 construct: Recombinant (1-346) HPK1 (h) is incubated with 8 mM MOPS pH 7.0
T1 sequence (Q92918 1-346): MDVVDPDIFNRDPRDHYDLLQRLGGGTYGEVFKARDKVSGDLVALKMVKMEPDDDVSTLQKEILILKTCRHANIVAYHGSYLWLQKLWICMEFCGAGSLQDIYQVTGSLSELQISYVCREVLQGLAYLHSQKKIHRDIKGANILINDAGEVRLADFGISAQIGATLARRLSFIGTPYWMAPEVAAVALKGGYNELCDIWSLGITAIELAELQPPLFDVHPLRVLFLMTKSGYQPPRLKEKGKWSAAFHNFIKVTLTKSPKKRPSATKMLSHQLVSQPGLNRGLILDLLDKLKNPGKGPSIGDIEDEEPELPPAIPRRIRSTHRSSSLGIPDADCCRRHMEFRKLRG
Procedure: A stock solution of 10 mM of test compound is prepared in DMSO. The compound plate was prepared by 3-fold and 9-point serial dilutions. […] The reaction is initiated by The addition of the Mg/ATP mix. After incubation for 40 minutes at RT, the reaction is stopped by the addition of phosphoric acid to a concentration of 0.5%.

Chain of Lck (h) (P06239 whole entry): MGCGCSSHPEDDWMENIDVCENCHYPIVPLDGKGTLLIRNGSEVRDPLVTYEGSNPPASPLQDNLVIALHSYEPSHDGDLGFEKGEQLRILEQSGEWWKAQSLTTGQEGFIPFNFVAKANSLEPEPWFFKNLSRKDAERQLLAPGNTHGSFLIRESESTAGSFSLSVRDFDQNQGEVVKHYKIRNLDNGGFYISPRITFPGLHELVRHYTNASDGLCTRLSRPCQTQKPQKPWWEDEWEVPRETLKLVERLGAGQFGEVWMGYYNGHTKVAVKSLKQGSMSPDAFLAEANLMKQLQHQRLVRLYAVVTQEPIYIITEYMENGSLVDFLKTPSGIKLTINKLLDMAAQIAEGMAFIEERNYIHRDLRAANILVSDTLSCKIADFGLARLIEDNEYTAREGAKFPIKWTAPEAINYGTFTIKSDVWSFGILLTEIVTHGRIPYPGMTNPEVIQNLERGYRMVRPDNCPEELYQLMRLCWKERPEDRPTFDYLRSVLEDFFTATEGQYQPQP

Structure (SMILES)	IC50 (Lck (h))	IC50 [1]
Nc1nc(F)c(-c2ccc3c(c2)CCC2(CCN(CC(F)(F)F)CC2)O3)cc1-c1ccc2c(c1)CCNC2=O [I-197, 6-(2-amino-6-fluoro-5-(1′-(2,2,2-trifluoroethyl)spiro[chromane-2,4′-piperidin]-6-yl)pyridin-3-yl)-3,4-dihydroisoquinolin-1(2H)-one]	> 1000 nM	11 to 100 nM
COCCN1CCN(c2ccc(-c3cc(-c4ccc5c(c4)CCNC5=O)c(N)nc3F)cc2)CC1 [I-29, 6-(2-amino-6-fluoro-5-(4-(4-(2-methoxyethyl)piperazin-1-yl)phenyl)pyridin-3-yl)-3,4-dihydroisoquinolin-1(2H)-one]	> 1000 nM	0.1 to 10 nM
N#Cc1cc(-c2cc(-c3ccc4c(c3)CCNC4=O)c(N)nc2F)ccc1OC1CCNCC1 [I-184, 5-(6-amino-2-fluoro-5-(1-oxo-1,2,3,4-tetrahydroisoquinolin-6-yl)pyridin-3-yl)-2-(piperidin-4-yloxy)benzonitrile]	> 1000 nM	11 to 100 nM
CO[C@@H](C)CN1CCN(c2ccc(-c3cc(-c4ccc5c(c4)CCNC5=O)c(N)nc3F)cc2)CC1 [I-24, (S)-6-(2-amino-6-fluoro-5-(4-(4-(2-methoxypropyl)piperazin-1-yl)phenyl)pyridin-3-yl)-3,4-dihydroisoquinolin-1(2H)-one]	> 1000 nM	0.1 to 10 nM
CC(C)N1CCN(c2ccc(-c3cc(-c4ccc5c(=O)[nH]c(C(F)(F)F)nc5c4)c(N)nc3F)cc2)CC1 [I-435, 7-(2-amino-6-fluoro-5-(4-(4-isopropylpiperazin-1-yl)phenyl)pyridin-3-yl)-2-(trifluoromethyl)quinazolin-4(3H)-one]	> 1000 nM	101 to 1000 nM
Nc1nc(F)c(-c2ccc(C3=CCN(CCO)C3)cc2)cc1-c1ccc2c(c1)CCNC2=O [I-123, 6-(2-amino-6-fluoro-5-(4-(1-(2-hydroxyethyl)-2,5-dihydro-1H-pyrrol-3-yl)phenyl)pyridin-3-yl)-3,4-dihydroisoquinolin-1(2H)-one]	> 1000 nM	0.1 to 10 nM
N#Cc1cc(-c2cc(-c3ccc4c(c3)CCNC4=O)c(N)nc2F)ccc1OC1CCN(CC(F)(F)F)CC1 [I-198, 5-(6-amino-2-fluoro-5-(1-oxo-1,2,3,4-tetrahydroisoquinolin-6-yl)pyridin-3-yl)-2-((1-(2,2,2-trifluoroethyl)piperidin-4-yl)oxy)benzonitrile]	> 1000 nM	11 to 100 nM
Nc1nc(F)c(-c2ccc(OC3CCN(C4COC4)CC3)cc2)cc1-c1ccc2c(c1)CCNC2=O [I-338, 6-(2-amino-6-fluoro-5-(4-((1-(oxetan-3-yl)piperidin-4-yl)oxy)phenyl)pyridin-3-yl)-3,4-dihydroisoquinolin-1(2H)-one]	> 1000 nM	11 to 100 nM
Nc1nc(F)c(-c2ccc(N3CCN(CCC(F)(F)F)CC3)cc2)cc1-c1ccc2c(c1)CCNC2=O [I-240, 6-(2-amino-6-fluoro-5-(4-(4-(3,3,3-trifluoropropyl)piperazin-1-yl)phenyl)pyridin-3-yl)-3,4-dihydroisoquinolin-1(2H)-one]	> 1000 nM	0.1 to 10 nM
CC(C)N1CCN(Cc2cccc(-c3cc(-c4ccc5c(c4)CCNC5=O)c(N)nc3F)c2)CC1 [I-330, 6-(2-amino-6-fluoro-5-(3-((4-isopropylpiperazin-1-yl)methyl)phenyl)pyridin-3-yl)-3,4-dihydroisoquinolin-1(2H)-one]	> 1000 nM	11 to 100 nM
Nc1nc(F)c(-c2ccc(C3CCCCN3CC(F)F)cc2)cc1-c1ccc2c(c1)CCNC2=O (centres unmarked) [I-101, 6-(2-amino-5-(4-(1-(2,2-difluoroethyl)piperidin-2-yl)phenyl)-6-fluoropyridin-3-yl)-3,4-dihydroisoquinolin-1(2H)-one]	> 1000 nM	11 to 100 nM
Nc1nc(F)c(-c2ccc(OC3CNC3)cc2)cc1-c1cc2c(cc1F)C(=O)NCC2 [I-339, 6-(2-amino-5-(4-(azetidin-3-yloxy)phenyl)-6-fluoropyridin-3-yl)-7-fluoro-3,4-dihydroisoquinolin-1(2H)-one 2,2,2-trifluoroacetate]	> 1000 nM	11 to 100 nM
Nc1nc(F)c(-c2ccc3c(c2)CCNC3)cc1-c1ccc2c(c1)CCNC2=O [I-255, 6-(2-amino-6-fluoro-5-(1,2,3,4-tetrahydroisoquinolin-6-yl)pyridin-3-yl)-3,4-dihydroisoquinolin-1(2H)-one 2,2,2-trifluoroacetate]	> 1000 nM	0.1 to 10 nM

Further lines, results first:

IC50 (Lck (h))	IC50 [1]	Structure (SMILES)
> 1000 nM	11 to 100 nM	CC(=O)N1CCC(Oc2ccc(-c3cc(-c4ccc5c(c4)CCNC5=O)c(N)nc3F)cc2C(F)(F)F)CC1 [I-199, 6-(5-(4-((1-acetylpiperidin-4-yl)oxy)-3-(trifluoromethyl)phenyl)-2-amino-6-fluoropyridin-3-yl)-3,4-dihydroisoquinolin-1(2H)-one]
> 1000 nM	0.1 to 10 nM	Cc1nc2cc(-c3cc(-c4ccc(N5CCN(C(C)C)CC5)cc4)c(F)nc3N)ccc2c(=O)[nH]1 [I-409, 7-(2-amino-6-fluoro-5-(4-(4-isopropylpiperazin-1-yl)phenyl)pyridin-3-yl)-2-methylquinazolin-4(3H)-one]
> 1000 nM	0.1 to 10 nM	Nc1nc(F)c(-c2cnn(C3CCOCC3)c2)cc1-c1ccc2c(c1)CCNC2=O [I-55, 6-(2-amino-6-fluoro-5-(1-(tetrahydro-2H-pyran-4-yl)-1H-pyrazol-4-yl)pyridin-3-yl)-3,4-dihydroisoquinolin-1(2H)-one]
> 1000 nM	0.1 to 10 nM	Nc1nc(F)c(-c2ccc(N3CCN(CC4CC4)CC3)cc2)cc1-c1ccc2c(=O)[nH]ccc2c1 [I-374, 6-(2-amino-5-(4-(4-(cyclopropylmethyl)piper-azin-1-yl)phenyl)-6-fluoropyridin-3-yl)isoquinolin-1(2H)-one]
> 1000 nM	0.1 to 10 nM	Cc1c[nH]c(=O)c2ccc(-c3cc(-c4ccc(N5CCN(CC6CC6)CC5)cc4)c(F)nc3N)cc12 [I-457, 6-(2-amino-5-(4-(4-(cyclopropylmethyl)piperazin-1-yl)phenyl)-6-fluoropyridin-3-yl)-4-methylisoquinolin-1(2H)-one]
> 1000 nM	11 to 100 nM	CN1CCN(C2(c3ccc(-c4cc(-c5ccc6c(c5)CCNC6=O)c(N)nc4F)cc3)CC2)CC1 [I-260, 6-(2-amino-6-fluoro-5-(4-(1-(4-methylpiperazin-1-yl)cyclopropyl)phenyl)pyridin-3-yl)-3,4-dihydroisoquinolin-1(2H)-one]
> 1000 nM	0.1 to 10 nM	CN1CCN(c2ccc(-c3cc(-c4ccc5c(c4)CCNC5=O)c(N)nc3F)cc2)C=N1 [I-31, 6-(2-amino-6-fluoro-5-(4-(1-methyl-5,6-dihydro-1,2,4-triazin-4(1H)-yl)phenyl)pyridin-3-yl)-3,4-dihydroisoquinolin-1(2H)-one]
> 1000 nM	101 to 1000 nM	Cc1[nH]c(=O)c2ccc(-c3cc(-c4ccc(N5CCN(C(C)C)CC5)cc4)c(F)nc3N)cc2c1F [I-381, 6-(2-amino-6-fluoro-5-(4-(4-isopropylpiperazin-1-yl)phenyl)pyridin-3-yl)-4-fluoro-3-methylisoquinolin-1(2H)-one]
> 1000 nM	0.1 to 10 nM	CC(=O)N1CCC(Oc2ccc(-c3cc(-c4ccc5c(c4)CCNC5=O)c(N)nc3F)c3c2OCO3)CC1 [I-306, 6-(5-(7-((1-acetylpiperidin-4-yl)oxy)benzo[d][1,3]dioxol-4-yl)-2-amino-6-fluoropyridin-3-yl)-3,4-dihydroisoquinolin-1(2H)-one]
